System: Carbonic Anhydrase
Test: Evaluation of Hydrochlorothiazide binding capacity by surface plasmon resonance on CA captured on an Anti-CA-immobilized chip
Details: two minutes after start of replacement
Experimental: The following experiment was carried out using a device shown in FIG. 22 of Japanese Patent Laid-Open No. 2001-330560 (hereinafter referred to as the surface plasmon resonance measurement device of the present invention) (shown in FIG. 1 of the present specification) and a dielectric block shown in FIG. 23 of Japanese Patent Laid-Open No. 2001-330560 (hereinafter referred to as the dielectric block of the present invention) (shown in FIG. 2 of the present specification).
After solutions were removed from the above dextran measuring chip, 70 μl of a mixture solution of 200 mM EDC (N-ethyl-N′-(3-dimethylaminopropyl)carbodiimide hydrochloride) and 50 mM NHS (N-hydroxysuccinimide) was added and the chip was then allowed to stand for 10 minutes. After the mixture solution was removed, the chip was washed three times with 100 μl of water and three times with 100 μl of Acetate 4.5 buffer (produced by Biacore). The chip filled with 100 μl of Acetate 4.5 buffer was set on the surface plasmon resonance measurement device of the present invention. The inside of the chip was replaced with anti-Carbonic Anhydrase antibody (hereafter referred to as Anti-CA, which was purchased from COSMO BIO Co., Ltd.(NOR)) solution (dissolved in Acetate 4.5 (produced by BIAcore) to […]), and the chip was allowed to stand for 30 minutes for immobilizing the Anti-CA. The inside of the chip was then replaced with 1M ethanolamine solution, and the chip was allowed to stand for 10 minutes. The inside of the chip was washed ten times with 100 μl of Acetate 4.5 buffer, thereby preparing an Anti-CA-immobilized chip. The amount of change in resonance signal due to Anti-CA immobilization was 15,000RU. After the measurement of the signal change, the inside of the Anti-CA-immobilized chip was washed three times with 100μl of 1×PBS (pH7.4) buffer (Wako Pure Chemical Industries, Ltd.).
The dielectric block of the Anti-CA-immobilized chip was then capped with a silicon rubber, thereby preparing a cell with an inner volume of 15 μl. Also, a fluid channel system was prepared by making two 1-mm φ holes in the silicon rubber cap and putting a teflon tube (registered trademark) with an internal diameter of 0.5 mm and an external diameter of 1 mm through the holes. Individual chips with such fluid channel system were set on the surface plasmon resonance measurement device of the present invention.
The inside of the fluid channel system was filled with 1×PBS (pH7.4) buffer. Signal changes were measured at 0.5 seconds intervals with reference to the signal prior to the replacement of the fluid. The inside of the fluid channel system was then replaced with Carbonic Anhydrase (produced by SIGMA, hereinafter referred to as CA) solution (dissolved in 1×PBS (pH7.4) to 100 μg/ml). When the binding signal reached 3,000RU, the inside was replaced with Hydrochlorothiazide (produced by SIGMA) solution (dissolved in 1×PBS (pH7.4) to 50 μM) by the individual methods indicated in Table 1. […] In order to obtain highly reliable data, it is preferable that the compound binding detection signal be 5RU or more.

Signal change (Method No. 1 (Example): 50 μM in 1×PBS pH7.4, fluid 100 μl, flow 100 μl/sec, replacement 1 sec, stop 119 sec): 15 RU | Signal change (Method No. 2 (Example): 50 μM in 1×PBS pH7.4, fluid 100 μl, flow 10 μl/sec, replacement 10 sec, stop 110 sec): 12 RU | Signal change (Method No. 3 (Example): 50 μM in 1×PBS pH7.4, fluid 150 μl, flow 5 μl/sec, replacement 30 sec, stop 90 sec): 10 RU | Signal change (Method No. 4 (Example): 50 μM in 1×PBS pH7.4, fluid 200 μl, flow 20 μl/sec, replacement 10 sec, stop 110 sec): 10 RU | Signal change (Method No. 5 (Comparative example): 50 μM in 1×PBS pH7.4, fluid 300 μl, flow 2.5 μl/sec, replacement 120 sec, stop 0 sec): −1 RU | Signal change (Method No. 6 (Comparative example): 50 μM in 1×PBS pH7.4, fluid 600 μl, flow 5 μl/sec, replacement 120 sec, stop 0 sec): −4 RU | Signal change (Method No. 7 (Comparative example): 50 μM in 1×PBS pH7.4, fluid 1200 μl, flow 10 μl/sec, replacement 120 sec, stop 0 sec): −10 RU | Signal change (Method No. 8 (Comparative example): 50 μM in 1×PBS pH7.4, fluid 2400 μl, flow 20 μl/sec, replacement 120 sec, stop 0 sec): −20 RU
SMILES: NS(=O)(=O)c1cc2c(cc1Cl)NCNS2(=O)=O [Hydrochlorothiazide]

— patent US20060209305A1, “Biosensor” (FUJI PHOTO FILM CO., LTD., priority 2005, published 2006)
